System: 935938-334-R-J1-PDC spheroids with HUVEC/MSC, viability
Experiment: Anticancer human tumor 935938-334-R-J1-PDC patient-derived small intestine adenocarcinoma cell line growth inhibition [PI3K]
Settings: for IC50: curve of first compound; for viability, T/C: stronger effect = lower value
How it was run: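 Stroma-containing spheroids: tumor line, pooled-donor HUVEC, hMSC. Treatments: targeted agents with PI3K inhibitors. Dosing: clinically relevant, half-log spacing, 10 microM ceiling without known Cmax. Read-out: cell viability.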
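Also: compound exposure lasted seven days before viability was read.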
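For viability, T/C in this document: percent of vehicle DMSO treated spheroid viability so 100% = untreated.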

`CCCS(=O)(=O)Nc1ccc(F)c(C(=O)c2c[nH]c3ncc(-c4ccc(Cl)cc4)cc23)c1F` + CC(Nc1ncnc2nc[nH]c12)c1cc2cccc(Cl)c2c(=O)n1-c1ccccc1 gave an IC50 (second compound 0.0316 µM) of 6.71 µM, an IC50 (second compound 0.1 µM) of 6.81 µM and an IC50 (second compound 0.316 µM) of 6.86 µM. The IC50 (second compound 1 µM) was 6.77 µM, the IC50 (second compound 3.16 µM) was 6.38 µM and the IC50 (second compound 10 µM) was 5.62 µM. For the same compound, the viability, T/C (second compound 0.0316 µM, first compound 0.0316 µM) was 107%, the viability, T/C (second compound 0.0316 µM, first compound 0.1 µM) was 100% and the viability, T/C (second compound 0.0316 µM, first compound 0.316 µM) was 140%. It also gave a viability, T/C (second compound 0.0316 µM, first compound 1 µM) of 102%, a viability, T/C (second compound 0.0316 µM, first compound 3.16 µM) of 95.2% and a viability, T/C (second compound 0.0316 µM, first compound 10 µM) of 26.3%. For the same compound, the viability, T/C (second compound 0.1 µM, first compound 0.0316 µM) was 88.2%, the viability, T/C (second compound 0.1 µM, first compound 0.1 µM) was 98.7% and the viability, T/C (second compound 0.1 µM, first compound 0.316 µM) was 95.9%. For the same compound, the viability, T/C (second compound 0.1 µM, first compound 1 µM) was 94%, the viability, T/C (second compound 0.1 µM, first compound 3.16 µM) was 108% and the viability, T/C (second compound 0.1 µM, first compound 10 µM) was 26.5%. It also gave a viability, T/C (second compound 0.316 µM, first compound 0.0316 µM) of 99.8%, a viability, T/C (second compound 0.316 µM, first compound 0.1 µM) of 94% and a viability, T/C (second compound 0.316 µM, first compound 0.316 µM) of 111%. It also gave a viability, T/C (second compound 0.316 µM, first compound 1 µM) of 110%, a viability, T/C (second compound 0.316 µM, first compound 3.16 µM) of 96.3% and a viability, T/C (second compound 0.316 µM, first compound 10 µM) of 27%. The viability, T/C (second compound 1 µM, first compound 0.0316 µM) was 97%, the viability, T/C (second compound 1 µM, first compound 0.1 µM) was 105% and the viability, T/C (second compound 1 µM, first compound 0.316 µM) was 109%. It also gave a viability, T/C (second compound 1 µM, first compound 1 µM) of 118%, a viability, T/C (second compound 1 µM, first compound 3.16 µM) of 91.6% and a viability, T/C (second compound 1 µM, first compound 10 µM) of 28.5%. The viability, T/C (second compound 3.16 µM, first compound 0.0316 µM) was 109%, the viability, T/C (second compound 3.16 µM, first compound 0.1 µM) was 91.6% and the viability, T/C (second compound 3.16 µM, first compound 0.316 µM) was 99.9%. The viability, T/C (second compound 3.16 µM, first compound 1 µM) was 117%, the viability, T/C (second compound 3.16 µM, first compound 3.16 µM) was 84.3% and the viability, T/C (second compound 3.16 µM, first compound 10 µM) was 28%. It also gave a viability, T/C (second compound 10 µM, first compound 0.0316 µM) of 91.2%, a viability, T/C (second compound 10 µM, first compound 0.1 µM) of 86.5% and a viability, T/C (second compound 10 µM, first compound 0.316 µM) of 91.6%. It also gave a viability, T/C (second compound 10 µM, first compound 1 µM) of 97%, a viability, T/C (second compound 10 µM, first compound 3.16 µM) of 78.1% and a viability, T/C (second compound 10 µM, first compound 10 µM) of 21.9%.

Reference: PubChem BioAssay AID1963966 (Molecular Pharmacology Branch, DTP, NCI, 2024)
